Results as given in article PMC8836234, “Salicylic Acid Is Required for Broad-Spectrum Disease Resistance in Rice” (International Journal of Molecular Sciences, 2022).

T1: OsSAH3 (Oryza sativa, UniProt Q7XUN0)
T1 construct: gene Os04g0581100; recombinant from E. coli BL21 (DE3), modified pGEX vector (GST purification), 3 x Myc at C-terminus; wild type has F136, R138, I289, P292; gene on chromosome 4, tail-to-tail with OsSAH2
T1 sequence (Q7XUN0 1-352): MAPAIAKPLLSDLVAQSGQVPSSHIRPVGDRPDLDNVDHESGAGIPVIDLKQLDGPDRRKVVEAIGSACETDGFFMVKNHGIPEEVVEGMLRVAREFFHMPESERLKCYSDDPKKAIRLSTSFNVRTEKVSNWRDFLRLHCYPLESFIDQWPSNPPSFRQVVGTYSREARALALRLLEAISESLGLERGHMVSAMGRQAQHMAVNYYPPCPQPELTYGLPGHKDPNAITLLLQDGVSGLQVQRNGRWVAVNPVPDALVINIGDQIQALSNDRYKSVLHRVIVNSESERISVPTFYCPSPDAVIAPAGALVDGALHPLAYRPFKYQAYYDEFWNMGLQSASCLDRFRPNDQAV

T2: DMR6 (Arabidopsis thaliana, UniProt Q9FLV0)
T2 construct: recombinant from E. coli BL21 (DE3), modified pGEX vector (GST purification), 3 x Myc at C-terminus; wild type has Y126, A283
T2 sequence (Q9FLV0 1-341): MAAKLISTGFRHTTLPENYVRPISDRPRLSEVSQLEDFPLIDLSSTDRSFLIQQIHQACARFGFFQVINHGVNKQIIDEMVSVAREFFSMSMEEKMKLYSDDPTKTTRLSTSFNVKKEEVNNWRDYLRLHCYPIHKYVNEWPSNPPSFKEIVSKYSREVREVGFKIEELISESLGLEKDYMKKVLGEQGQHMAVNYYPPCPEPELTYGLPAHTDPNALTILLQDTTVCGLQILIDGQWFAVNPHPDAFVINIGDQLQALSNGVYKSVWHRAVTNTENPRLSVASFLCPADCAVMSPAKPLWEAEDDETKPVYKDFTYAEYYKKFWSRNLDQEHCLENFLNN

T3: OsSAH2 (Oryza sativa, UniProt B9FC47)
T3 construct: gene Os04g0581000; recombinant from E. coli BL21 (DE3), modified pGEX vector (GST purification), 3 x Myc at C-terminus; wild type has Y127, M282, A285; gene on chromosome 4, tail-to-tail with OsSAH3
T3 sequence (B9FC47 1-340): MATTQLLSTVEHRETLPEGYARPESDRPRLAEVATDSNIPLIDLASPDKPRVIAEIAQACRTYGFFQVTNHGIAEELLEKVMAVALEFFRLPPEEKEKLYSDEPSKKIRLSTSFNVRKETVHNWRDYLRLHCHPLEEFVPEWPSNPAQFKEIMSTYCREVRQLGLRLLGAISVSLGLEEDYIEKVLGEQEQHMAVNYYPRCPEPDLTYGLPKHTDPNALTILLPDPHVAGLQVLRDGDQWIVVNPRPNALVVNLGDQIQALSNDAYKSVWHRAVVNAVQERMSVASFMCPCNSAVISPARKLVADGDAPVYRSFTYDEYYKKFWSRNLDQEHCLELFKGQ

T4: OsSAH4 (Oryza sativa, UniProt Q8W2X5)
T4 construct: gene F3H-2; recombinant from E. coli BL21 (DE3), modified pGEX vector (GST purification), 3 x Myc at C-terminus
T4 sequence (Q8W2X5 1-342): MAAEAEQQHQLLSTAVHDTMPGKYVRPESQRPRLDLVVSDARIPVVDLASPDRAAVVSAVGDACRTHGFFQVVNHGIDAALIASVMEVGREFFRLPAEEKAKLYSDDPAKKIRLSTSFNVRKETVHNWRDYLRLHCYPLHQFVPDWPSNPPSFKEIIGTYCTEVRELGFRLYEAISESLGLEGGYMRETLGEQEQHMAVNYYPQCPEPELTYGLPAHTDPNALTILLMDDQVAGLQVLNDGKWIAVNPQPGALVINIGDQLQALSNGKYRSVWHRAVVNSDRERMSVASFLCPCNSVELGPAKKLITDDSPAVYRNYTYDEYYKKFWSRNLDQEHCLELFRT

T5: OsSAH1 (Oryza sativa, UniProt Q10SI2)
T5 construct: gene Os03g0122300; recombinant from E. coli BL21 (DE3), modified pGEX vector (GST purification), 3 x Myc at C-terminus
T5 sequence (Q10SI2 1-342): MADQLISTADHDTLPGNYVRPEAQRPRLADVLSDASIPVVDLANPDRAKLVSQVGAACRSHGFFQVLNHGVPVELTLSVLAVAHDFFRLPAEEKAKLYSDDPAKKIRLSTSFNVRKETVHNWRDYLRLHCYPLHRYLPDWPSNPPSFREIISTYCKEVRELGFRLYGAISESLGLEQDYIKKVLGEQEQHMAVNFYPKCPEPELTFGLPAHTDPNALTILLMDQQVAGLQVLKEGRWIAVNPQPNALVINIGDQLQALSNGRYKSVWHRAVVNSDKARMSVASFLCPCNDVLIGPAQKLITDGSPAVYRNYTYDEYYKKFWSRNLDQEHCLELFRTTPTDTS

T6: OsSAH2 (Oryza sativa, UniProt B9FC47, Y127F)
T6 construct: gene Os04g0581000; recombinant from E. coli BL21 (DE3), modified pGEX vector (GST purification), 3 x Myc at C-terminus; wild type has Y127, M282, A285; gene on chromosome 4, tail-to-tail with OsSAH3
T6 sequence (B9FC47 1-340 Y127F): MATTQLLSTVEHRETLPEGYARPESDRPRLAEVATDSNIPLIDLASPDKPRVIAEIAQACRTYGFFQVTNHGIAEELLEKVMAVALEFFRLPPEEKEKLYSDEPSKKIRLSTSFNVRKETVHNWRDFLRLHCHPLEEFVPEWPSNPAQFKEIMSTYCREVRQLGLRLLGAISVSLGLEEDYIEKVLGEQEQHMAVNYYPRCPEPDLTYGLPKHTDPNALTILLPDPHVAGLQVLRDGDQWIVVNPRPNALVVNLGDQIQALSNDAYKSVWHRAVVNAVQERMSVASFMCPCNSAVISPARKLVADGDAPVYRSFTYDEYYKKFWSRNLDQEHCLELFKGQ


Legend:
OsSAH3 = target: T1, OsSAH3; experiment: LC-MS/MS of […],5-DHBA formation, substrate inhibition fit; type: biochemical; settings: substrate inhibition constant, second site; 5-hydroxylation (2,5-DHBA product); 1 mM 2-oxoglutarate, 0.4 mM FeSO4, phosphate pH 6.8, 40 °C
DMR6 = target: T2, DMR6; experiment: LC-MS/MS product formation relative to wild type; type: biochemical; settings: 2-oxoglutarate, FeSO4, phosphate pH 6.8, 40 °C; 2,3- and 2,5-DHBA products
OsSAH2 [1] = target: T3, OsSAH2; experiment: LC-MS/MS of […],5-DHBA formation, substrate inhibition fit; type: biochemical; settings: substrate inhibition constant, second site; 5-hydroxylation (2,5-DHBA product); 1 mM 2-oxoglutarate, 0.4 mM FeSO4, phosphate pH 6.8, 40 °C
OsSAH4 = target: T4, OsSAH4; experiment: as above; type: biochemical; settings: substrate inhibition constant, second site; 5-hydroxylation (2,5-DHBA product); 1 mM 2-oxoglutarate, 0.4 mM FeSO4, phosphate pH 6.8, 40 °C
OsSAH1 = target: T5, OsSAH1; experiment: as above; type: biochemical; settings: substrate inhibition constant, second site; 5-hydroxylation (2,5-DHBA product); 1 mM 2-oxoglutarate, 0.4 mM FeSO4, phosphate pH 6.8, 40 °C
OsSAH2 [2] = target: T6, OsSAH2; experiment: LC-MS/MS product formation relative to wild type; type: biochemical; settings: 2-oxoglutarate, FeSO4, phosphate pH 6.8, 40 °C; 2,3- and 2,5-DHBA products
purified protein = substrate: O=C(O)c1ccccc1O; experiment: purified protein; type: biochemical, Oryza sativa; settings: 5-hydroxylation (2,5-DHBA product), 1 mM 2-oxoglutarate, 0.4 mM FeSO4, ascorbate, phosphate pH 6.8, 40 °C

Row | Molecule | Ksi (OsSAH3) [µM] | LC-MS/MS product formation relative to wild type (DMR6) | Ksi (OsSAH2 [1]) [µM] | Ksi (OsSAH4) [µM] | Ksi (OsSAH1) [µM] | relative enzyme activity (OsSAH2 [2]) | Km (purified protein) [µM] | kcat (purified protein) [s⁻¹] | kcat/Km (purified protein) [M⁻¹ s⁻¹]
1 | O=C(O)c1ccccc1O [SA, 2-hydroxy benzoic acid] | 365.12 ± 30.58 | The higher activity of DMR6 than that of OsSAH2 was also supported by these parameters | 2.14 ± 1.86 | 26.52 ± 10.71 | 27.13 ± 21.11 | OsSAH2^Y127F mutant showed a similar level of SA5H activity as that of OsSAH2 |  |  | 
2 | OsSAH3 (Oryza sativa Japonica Group) (protein, recombinant from E. coli BL21 (DE3), modified pGEX vector (GST purification), 3 x Myc at C-terminus; wild type has F136, R138, I289, P292; gene on chromosome 4, tail-to-tail with OsSAH2) MAPAIAKPLLSDLVAQSGQVPSSHIRPVGDRPDLDNVDHESGAGIPVIDLKQLDGPDRRKVVEAIGSACETDGFFMVKNHGIPEEVVEGMLRVAREFFHMPESERLKCYSDDPKKAIRLSTSFNVRTEKVSNWRDFLRLHCYPLESFIDQWPSNPPSFRQVVGTYSREARALALRLLEAISESLGLERGHMVSAMGRQAQHMAVNYYPPCPQPELTYGLPGHKDPNAITLLLQDGVSGLQVQRNGRWVAVNPVPDALVINIGDQIQALSNDRYKSVLHRVIVNSESERISVPTFYCPSPDAVIAPAGALVDGALHPLAYRPFKYQAYYDEFWNMGLQSASCLDRFRPNDQAV |  |  |  |  |  |  | 197.08 ± 19.42 | 0.256 ± 0.0332 | 1290
